pEC50: −log10 of the molar value. Where a name gives a salt, the structure may show the parent alone.
Target: T1, human receptor found in pancreatic islet cells (Homo sapiens, UniProt Q7Z601)
T1 sequence (Q7Z601 1-462): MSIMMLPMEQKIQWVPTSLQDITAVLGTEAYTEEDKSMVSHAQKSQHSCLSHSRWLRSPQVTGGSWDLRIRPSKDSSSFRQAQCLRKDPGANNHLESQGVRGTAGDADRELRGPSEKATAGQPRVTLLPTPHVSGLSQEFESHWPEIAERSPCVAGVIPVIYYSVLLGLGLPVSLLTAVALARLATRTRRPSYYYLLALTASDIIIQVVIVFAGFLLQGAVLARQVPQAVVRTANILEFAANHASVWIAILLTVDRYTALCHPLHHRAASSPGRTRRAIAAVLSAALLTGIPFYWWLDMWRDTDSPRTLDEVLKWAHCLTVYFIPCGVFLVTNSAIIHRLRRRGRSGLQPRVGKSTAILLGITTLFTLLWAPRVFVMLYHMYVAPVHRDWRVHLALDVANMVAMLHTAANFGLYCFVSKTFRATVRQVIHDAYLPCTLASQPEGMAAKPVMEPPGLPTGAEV
Experiment: Activation of intracellular IP3 signaling in transfected cells (Activation Assay)
Type: cell-based
Settings: calculated from IP3 concentration measurements in cells transfected with the human receptor
Protocol: Table 12 provides exemplary compounds that were prepared and assessed, following protocols known to those of skilled in the art, for activation of intracellular inositol trisphosphate (IP3) signaling pathways that lead to elevation of intracellular calcium concentration. EC50 values provided in Table 12 were calculated from IP3 concentration measurements in cells transfected with a human receptor found in pancreatic islet cells, inter alia.

`Cn1nc(-c2ccncc2)cc1NC(=O)[C@H](Cc1ccc(F)cc1)NCc1cscn1` [Example 17.5, (S)-3-(4-Fluorophenyl)-N-(1-methyl-3-(pyridin-4-yl)-1H-pyrazol-5-yl)-2-(thiazol-4-ylmethylamino)propanamide] showed a pEC50 of over 7.30.
For `CCn1nc(-c2ccnc(NC)c2)cc1NC(=O)[C@H](Cc1ccc(F)cc1)NCc1c[nH]nn1` [Example 31.2, (2S)-2-((1H-1,2,3-triazol-4-yl)methylamino)-N-(1-ethyl-3-(2-(methylamino)pyridin-4-yl)-1H-pyrazol-5-yl)-3-(4-fluorophenyl)propanamide], the pEC50 was over 7.30.
`O=C(Nc1cnc(-c2ccncc2)s1)[C@H](Cc1ccccc1)NCc1cscn1` [Example 5.3, (S)-3-Phenyl-N-(2-(pyridin-4-yl)thiazol-5-yl)-2-(thiazol-4-ylmethylamino)-propanamide] was tested, and the pEC50 was 7.00 to 7.30.
`CC(C)n1nc(-c2ccncc2)cc1NC(=O)[C@H](Cc1ccc(Cl)cc1)NCC(=O)O` [Example 29, (S)-2-(3-(4-Chlorophenyl)-1-(1-isopropyl-3-(pyridin-4-yl)-1H-pyrazol-5-ylamino)-1-oxopropan-2-ylamino)acetic acid] was tested, and the pEC50 was 7.00 to 7.30.
In the case of `CC(C)(C)OC(=O)c1cc(NC(=O)[C@H](Cc2ccccc2)NC2(c3ccccn3)CC2)cc(-c2ccncc2)c1` [Example 73, (S)— tert-Butyl 3-(3-phenyl-2-(1-(pyridin-2-yl)cyclopropylamino)propanamido)-5-(pyridin-4-yl)benzoate], the pEC50 was 6.00 to 7.00.
`CNc1cc(-c2cc(NC(=O)[C@H](Cc3ccc(F)cc3)NCc3cscn3)n(CCO)n2)ccn1` [Example 30, (2S)-3-(4-Fluorophenyl)-N-(1-(2-hydroxyethyl)-3-(2-(methylamino)pyridin-4-yl)-1H-pyrazol-5-yl)-2-(thiazol-4-ylmethylamino)propanamide] showed a pEC50 of 7.00 to 7.30.
For `COC(=O)c1cc(-c2ccncc2)cc2c1CCN2C(=O)[C@@H](N)Cc1ccccc1` [Example 54.1, (S)-Methyl 1-(2-amino-3-phenylpropanoyl)-6-(pyridin-4-yl)indoline-4-carboxylate], the pEC50 was 6.00 to 7.00.
Compound `O=C(Nc1cccc(-c2ccccc2)c1)[C@H](Cc1ccccc1)NCc1cscn1` [Example 48] has a pEC50 of 6.00 to 7.00.
With `Cc1cc(-c2cc(NC(=O)[C@H](Cc3ccc(F)cc3)NCC(=O)O)n(C)n2)ccn1` [Example 16.2, 2-((S)-3-(4-Fluorophenyl)-1-(1-methyl-3-(2-methylpyridin-4-yl)-1H-pyrazol-5-ylamino)-1-oxopropan-2-ylamino)acetic acid dihydrochloride] the pEC50 was 7.00 to 7.30.
In the case of `COC(=O)c1cc(-c2ccncc2)cc2c1CCN2C(=O)[C@H](Cc1ccccc1)NCc1cscn1` [Example 54.8, TFA salt], the pEC50 was 6.00 to 7.00.
For `COc1ncc(-c2ccn[nH]2)cc1NC(=O)[C@H](Cc1ccccc1)NC1(c2ccccn2)CC1` [Example 14.1, (2S)—N-(2-methoxy-5-(1H-pyrazol-5-yl)pyridin-3-yl)-3-phenyl-2-(1-(pyridin-2-yl)cyclopropylamino)propanamide], the pEC50 was 6.00 to 7.00.
Work on `CN(C)CCNC(=O)c1cc(NC(=O)[C@H](Cc2ccccc2)NCc2cscn2)cc(-c2ccncc2)c1` [Example 74, (S)—N-(2-(dimethylamino)ethyl)-3-(3-phenyl-2-(thiazol-4-ylmethylamino)propanamido)-5-(pyridin-4-yl)benzamide bis trifluoroacetate salt] yielded a pEC50 of 6.00 to 7.00.
`C[C@H](N[C@@H](Cc1ccccc1)C(=O)Nc1nnc(-c2ccncc2)s1)c1cscn1` [Example 1.4] gave a pEC50 of 7.00 to 7.30.
`Cc1cc(-c2cc(NC(=O)[C@H](Cc3ccccc3)NCc3cscn3)cc(C(=O)O)c2)ccn1` [Example 49.2, 3-(2-Methylpyridin-4-yl)-5-((S)-3-phenyl-2-(thiazol-4-ylmethylamino)propanamido)benzoic acid TFA salt] was tested, and the pEC50 was 6.00 to 7.00.
With `O=C(Nc1cccc(-c2ccncc2)c1)[C@H](Cc1ccccc1)NCc1nccs1` [Example 34.16, (S)-3-Phenyl-N-(3-(pyridin-4-yl)phenyl)-2-(thiazol-2-ylmethylamino)propanamide] the pEC50 was 6.00 to 7.00.
Work on `Cc1cc(-c2cc(NC(=O)[C@H](Cc3ccccc3)NCc3ccccn3)cc(NS(C)(=O)=O)c2)ccn1` [Example 51.2, (2S)—N-(3-(2-Methylpyridin-4-yl)-5-(methylsulfonamido)phenyl)-3-phenyl-2-(pyridin-2-ylmethylamino)propanamide] yielded a pEC50 of 7.00 to 7.30.
`COC(=O)c1cc(-c2ccnc(C)c2)cc2c1CCN2C(=O)[C@H](Cc1ccccc1)NCc1ccccn1` [Example 72, Methyl 6-(2-methylpyridin-4-yl)-1-((S)-3-phenyl-2-(pyridin-2-ylmethylamino)propanoyl)indoline-4-carboxylate] gave a pEC50 of 7.00 to 7.30.
With `Cc1cc(-c2cc(NC(=O)[C@@H](N)Cc3ccc(Cl)cc3Cl)cc(C(=O)O)c2)ccn1` [Example 49.1, 3-((S)-2-Amino-3-(2,4-dichlorophenyl)propanamido)-5-(2-methylpyridin-4-yl)benzoic acid] the pEC50 was 5.00 to 6.00.
`Cc1cc(-c2nc(C)c(NC(=O)[C@H](Cc3ccc(F)cc3)NCc3cscn3)s2)ccn1` [Example 22, (2S)-3-(4-Fluorophenyl)-N-(4-methyl-2-(2-methylpyridin-4-yl)thiazol-5-yl)-2-(thiazol-4-ylmethylamino)propanamide] was tested, and the pEC50 was 7.00 to 7.30.
With `CCn1nc(-c2ccnc(NC)c2)cc1NC(=O)[C@H](Cc1ccc(F)cc1)NCC(=O)O` [Example 31.4, 2-((S)-1-(1-Ethyl-3-(2-(methylamino)pyridin-4-yl)-1H-pyrazol-5-ylamino)-3-(4-fluorophenyl)-1-oxopropan-2-ylamino)acetic acid] the pEC50 was over 7.30.
For `CCn1nc(-c2ccncc2)cc1NC(=O)[C@H](Cc1ccccc1)NCCCc1ccccn1` [Example 20.2], the pEC50 was over 7.30.
With `O=C(O)c1cc(NC(=O)[C@H](Cc2ccccc2)NCc2nccs2)cc(-c2ccncc2)c1` [Example 45.3, (S)-3-(3-Phenyl-2-(thiazol-2-ylmethylamino)propanamido)-5-(pyridin-4-yl)benzoic acid] the pEC50 was 6.00 to 7.00.
For `CC(N[C@@H](Cc1ccccc1)C(=O)Nc1cccc(-c2ccncc2)c1)c1ccccn1` (stereo partly drawn) [Example 34.2, (2S)-3-Phenyl-2-(1-(pyridin-2-yl)ethylamino)-N-(3-(pyridin-4-yl)phenyl)propanamide], the pEC50 was 6.00 to 7.00.
`CCC(N[C@@H](Cc1ccccc1)C(=O)Nc1cccc(-c2ccncc2)c1)c1ccccn1` (stereo partly drawn) [Example 34.3, (2S)-3-Phenyl-2-(1-(pyridin-2-yl)propylamino)-N-(3-(pyridin-4-yl)phenyl)propanamide] was tested, and the pEC50 was 7.00 to 7.30.
`CN(C)C(=O)c1cc(NC(=O)[C@H](Cc2ccccc2)NCc2cscn2)cc(-c2ccncc2)c1` [Example 55, (S)—N,N-Dimethyl-3-(3-phenyl-2-(thiazol-4-ylmethylamino)propanamido)-5-(pyridin-4-yl)benzamide] gave a pEC50 of 6.00 to 7.00.
In the case of `NC(=O)CNC(=O)c1cc(-c2ccncc2)cc2c1CCN2C(=O)[C@H](Cc1ccccc1)NCc1cscn1` [Example 71, (S)—N-(2-Amino-2-oxoethyl)-1-(3-phenyl-2-(thiazol-4-ylmethylamino)propanoyl)-6-(pyridin-4-yl)indoline-4-carboxamide], the pEC50 was 7.00 to 7.30.
`O=C(Nc1cccc(-c2ccc(F)cc2)c1)[C@H](Cc1ccccc1)NCc1cscn1` [Example 44] showed a pEC50 of 6.00 to 7.00.
With `N[C@@H](Cc1ccccc1)C(=O)Nc1cccc(-c2ccncc2)c1` [Example 34.1.D, (S)-2-Amino-3-phenyl-N-(3-(pyridin-4-yl)phenyl)propanamide] the pEC50 was 5.00 to 6.00.
`CCn1nc(-c2ccnc(NC)c2)cc1NC(=O)[C@H](Cc1ccc(F)cc1)NCc1ccc(F)cn1` [Example 31.3, (2S)—N-(1-Ethyl-3-(2-(methylamino)pyridin-4-yl)-1H-pyrazol-5-yl)-3-(4-fluorophenyl)-2-((5-fluoropyridin-2-yl)methylamino)propanamide] showed a pEC50 of over 7.30.
For `Cc1cc(-c2cccc(NC(=O)[C@H](Cc3ccccc3)NCc3cscn3)c2)ccn1` [Example 39, (2S)—N-(3-(2-methylpyridin-4-yl)phenyl)-3-phenyl-2-(thiazol-4-ylmethylamino)propanamide], the pEC50 was 7.00 to 7.30.
`COC(=O)COc1cc(NC(=O)[C@H](Cc2ccccc2)NCc2cscn2)cc(-c2ccnc(C)c2)c1` [Example 65, Methyl 2-(3-(2-methylpyridin-4-yl)-5-((S)-3-phenyl-2-(thiazol-4-ylmethylamino)propanamido)phenoxy)acetate] was tested, and the pEC50 was 6.00 to 7.00.
`CNc1cc(-c2cc(NC(=O)[C@H](Cc3ccccc3)NCC(=O)O)n(C)n2)ccn1` [Example 23.9, 2-((S)-1-(1-Methyl-3-(2-(methylamino)pyridin-4-yl)-1H-pyrazol-5-ylamino)-1-oxo-3-phenylpropan-2-ylamino)acetic acid] gave a pEC50 of over 7.30.
`CC(C)(C(=O)O)c1cc(NC(=O)[C@H](Cc2ccc(Cl)cc2)NCc2cscn2)cc(-c2ccncc2)c1` [Example 63.1, (S)-2-(3-(3-(4-Chlorophenyl)-2-(thiazol-4-ylmethylamino)propanamido)-5-(pyridin-4-yl)phenyl)-2-methylpropanoic acid] was tested, and the pEC50 was 6.00 to 7.00.
`O=C([C@H](Cc1ccccc1)NCc1cscn1)N1CCc2c(-c3n[nH]c(=S)o3)cc(-c3ccncc3)cc21` [Example 58, (S)-3-Phenyl-1-(6-(pyridin-4-yl)-4-(5-thioxo-4,5-dihydro-1,3,4-oxadiazol-2-yl)indolin-1-yl)-2-(thiazol-4-ylmethylamino)propan-1-one] gave a pEC50 of over 7.30.

From patent US8785468B2, “Phenylalanine amide derivatives useful for treating insulin-related diseases and conditions” (Amgen Inc., priority 2009, dated 2014)
